Assay results taken from ChEMBL document CHEMBL4219209, “Design, synthesis and biological evaluation of novel tetrahydroisoquinoline derivatives as P-glycoprotein-mediated multidrug resistance inhibitors” (Bioorg Med Chem, 2018).
Counter-ions that a name gives are not always drawn. The source made the active and inactive calls. The rule behind the calls is not given here.

Columns and labels:
K562 [1] = experiment: Cytotoxicity against human K562 cells assessed as reduction in cell viability after 48 hrs by MTT assay; type: cell-based; conditions: K562, 48 h
K562/A02 [2] = experiment: Cytotoxicity against human K562/A02 cells overexpressing P-gp assessed as reduction in cell viability after 48 hrs by MTT assay; type: ADME, cell-based; conditions: K562/A02, 48 h
Homo sapiens [3] = organism: Homo sapiens; experiment: Inhibition of P-gp in human K562/A02 cells assessed as potentiation of adriamycin-induced cytotoxicity by measuring fold reduction in adriamycin IC50 at 5 uM after 48 hrs by MTT assay relative to adriamycin alone; type: cell-based
K562/A02 [4] = conditions: Homo sapiens, 5 uM
Description: Inhibition of P-gp in human K562/A02 cells assessed as increase in adriamycin accumulation at 5 uM after 2.5 hrs by flow cytometry method

Homo sapiens [5] = organism: Homo sapiens; experiment: Inhibition of P-gp in human K562/A02 cells assessed as potentiation of adriamycin-induced cytotoxicity by measuring fold reduction in adriamycin IC50 at 5 uM preincubated for 24 hrs followed by adriamycin addition measured after 48 hrs by MTT assay relative to adriamycin alone; type: cell-based
K562 [6] = experiment: Inhibition of P-gp in human K562 cells assessed as increase in Rh123 accumulation at 5 uM after 2.5 hrs by flow cytometry method; type: cell-based
Homo sapiens [7] = organism: Homo sapiens; experiment: Inhibition of P-gp in human K562/A02 cells assessed as potentiation of adriamycin-induced cytotoxicity by measuring fold reduction in adriamycin IC50 at 0.025 uM after 48 hrs by MTT assay relative to adriamycin alone; type: cell-based
Homo sapiens [8] = organism: Homo sapiens; experiment: (§1) Inhibition of P-gp in human K562/A02 cells assessed as potentiation of adriamycin-induced cytotoxicity after 48 hrs by MTT assay; type: cell-based
[9] = as §1; type: cell-based; conditions: K562/A02, 48 h
Homo sapiens [10] = organism: Homo sapiens; experiment: Inhibition of P-gp in human K562/A02 cells assessed as potentiation of adriamycin-induced cytotoxicity by measuring fold reduction in adriamycin IC50 at 0.05 uM after 48 hrs by MTT assay relative to adriamycin alone; type: cell-based
Homo sapiens [11] = organism: Homo sapiens; experiment: (§2) Inhibition of P-gp in human K562/A02 cells assessed as potentiation of adriamycin-induced cytotoxicity by measuring fold reduction in adriamycin IC50 at 5 uM preincubated for 24 hrs followed by compound wash out and subsequent addition of adriamycin after 6 hrs measured after 48 hrs by MTT assay relative to adriamycin alone; type: cell-based
Homo sapiens [12] = organism: Homo sapiens; experiment: Inhibition of P-gp in human K562/A02 cells assessed as potentiation of adriamycin-induced cytotoxicity by measuring fold reduction in adriamycin IC50 at 2.5 uM after 48 hrs by MTT assay relative to adriamycin alone; type: cell-based
Homo sapiens [13] = organism: Homo sapiens; experiment: Inhibition of P-gp in human K562/A02 cells assessed as potentiation of adriamycin-induced cytotoxicity by measuring fold reduction in adriamycin IC50 at 0.5 uM after 48 hrs by MTT assay relative to adriamycin alone; type: cell-based
Homo sapiens [14] = organism: Homo sapiens; experiment: as §2, with “adriamycin” for “adriamycin after 6 hrs”; type: cell-based
K562 [15] = experiment: Inhibition of P-gp in human K562 cells assessed as Rh123 efflux at 5 uM after 90 mins by fluorospectro photometric analysis (reference value: >70%); type: cell-based; set-up: scale not given: the % may be the effect or the level left
Homo sapiens [16] = organism: Homo sapiens; experiment: Inhibition of P-gp in human K562/A02 cells assessed as potentiation of adriamycin-induced cytotoxicity by measuring fold reduction in adriamycin IC50 at 0.1 uM after 48 hrs by MTT assay relative to adriamycin alone; type: cell-based
K562/A02 [17] = experiment: Inhibition of P-gp in human K562/A02 cells assessed as increase in adriamycin accumulation after 2.5 hrs by flow cytometry method; type: cell-based
Homo sapiens [18] = organism: Homo sapiens; experiment: Inhibition of P-gp in human K562/A02 cells assessed as potentiation of adriamycin-induced cytotoxicity by measuring fold reduction in adriamycin IC50 at 1 uM after 48 hrs by MTT assay relative to adriamycin alone; type: cell-based
Homo sapiens [19] = organism: Homo sapiens; experiment: as §2, with “after 12” for “after 6”; type: cell-based
Homo sapiens [20] = organism: Homo sapiens; experiment: as §2, with “after 24” for “after 6”; type: cell-based
Homo sapiens [21] = organism: Homo sapiens; experiment: Inhibition of P-gp in human K562/A02 cells assessed as potentiation of adriamycin-induced cytotoxicity by measuring fold reduction in adriamycin IC50 at 0.25 uM after 48 hrs by MTT assay relative to adriamycin alone; type: cell-based

SMILES | IC50 (K562 [1]) | IC50 (K562/A02 [2]; read-out: IC50) | Ratio IC50 (Homo sapiens [3]) | further results
COc1cc2c(cc1OC)CN(CCn1cc(CNc3ccccc3C(=O)Nc3ccccc3)nn1)CC2 | 34.3 µM | > 100 µM | 2.1 | 
COc1cc2c(cc1OC)CN(CCn1cc(CNc3ccccc3C(=O)NCc3ccccc3)nn1)CC2 | 49.6 µM | > 100 µM | 4.5 | 
COc1ccc(NC(=O)c2ccccc2NCc2cn(CCN3CCc4cc(OC)c(OC)cc4C3)nn2)cc1 | 58.4 µM | > 100 µM |  | 
COc1cc2c(cc1OC)CN(CCn1cc(CNc3ccccc3C(=O)Nc3ccc(F)cc3)nn1)CC2 | 61 µM | > 100 µM | 3.7 | 
COc1cccc2c1C(=O)c1c(O)c3c(c(O)c1C2=O)C[C@@](O)(C(=O)CO)C[C@@H]3O[C@H]1C[C@H](N)[C@H](O)[C@H](C)O1 [DOXORUBICIN HYDROCHLORIDE] | 0.97 µM | 65.6 µM |  | 
COc1ccc(CCN(C)CCCC(C#N)(c2ccc(OC)c(OC)c2)C(C)C)cc1OC (stereo unspecified) [VERAPAMIL] | 82.2 µM |  | 3.3 | inhibition (K562/A02 [4]): Active; Ratio IC50 (Homo sapiens [5]): 4.8; inhibition (K562 [6]): Active; IC50 (K562/A02 [2]): 67.2 µM
COc1cc2c(cc1OC)CN(CCn1cc(CNc3ccccc3C(=O)Nc3ccc4c(c3)OCO4)nn1)CC2 | 41.5 µM | > 100 µM | 4.6 | 
COc1cc2c(cc1OC)CN(CCn1cc(CNc3ccccc3C(=O)Nc3ccc(OC(F)(F)F)cc3)nn1)CC2 | 90.2 µM | > 100 µM | 21.4 | 
COc1cc2c(cc1OC)CN(CCn1cc(CNc3ccccc3C(=O)NCC(C)C)nn1)CC2 | 61.5 µM | > 100 µM | 1.7 | 
COc1cc2c(cc1OC)CN(CCn1cc(CNc3ccccc3C(=O)NC3CCOCC3)nn1)CC2 | 59.2 µM | > 100 µM | 8.2 | 
COc1cc2c(cc1OC)CN(CCn1cc(CNc3ccccc3C(=O)Nc3ccc(C(C)(C)C)cc3)nn1)CC2 | 45.4 µM | > 100 µM | 34.2 to 39 | Ratio IC50 (Homo sapiens [7]): 1.2; inhibition (Homo sapiens [8]): Dose-dependent effect; EC50 [9]: 0.253 µM; Ratio IC50 (Homo sapiens [10]): 1.2; Ratio IC50 (Homo sapiens [11]): 8.1; Ratio IC50 (Homo sapiens [12]): 13.1; Ratio IC50 (Homo sapiens [5]): 40.7; Ratio IC50 (Homo sapiens [13]): 3.8; Ratio IC50 (Homo sapiens [14]): 11.6; Activity (K562 [15]): < 40%; Ratio IC50 (Homo sapiens [16]): 1.3; inhibition (K562/A02 [17]): Dose-dependent effect; inhibition (K562 [6]): Active; Ratio IC50 (Homo sapiens [18]): 7.3; Ratio IC50 (Homo sapiens [19]): 5; Ratio IC50 (Homo sapiens [20]): 3; Ratio IC50 (Homo sapiens [21]): 2.3
COc1ccc(CCNC(=O)c2ccccc2NCc2cn(CCN3CCc4cc(OC)c(OC)cc4C3)nn2)cc1OC | 61.1 µM | > 100 µM | 1.2 | 
COc1cc2c(cc1OC)CN(CCn1cc(CNc3ccccc3C(=O)Nc3ccc([N+](=O)[O-])cc3)nn1)CC2 | 43.8 µM | > 100 µM | 2.6 | 
COc1cc2c(cc1OC)CN(CCn1cc(CNc3ccccc3C(=O)NCCc3ccccc3)nn1)CC2 | 42.2 µM | > 100 µM | 4.3 | 
COc1cc2c(cc1OC)CN(CCn1cc(CNc3ccccc3C(=O)Nc3ccc(F)c(F)c3)nn1)CC2 | 87.9 µM | > 100 µM | 3.7 | 
COc1ccc(NC(=O)c2ccccc2NCc2cn(CCN3CCc4cc(OC)c(OC)cc4C3)nn2)cc1OC | 60.5 µM | > 100 µM | 1.3 | 
COc1cc2c(cc1OC)CN(CCn1cc(CNc3ccccc3C(=O)Nc3cc(OC)c(OC)c(OC)c3)nn1)CC2 | 43.1 µM | > 100 µM | 1.3 | 
COc1cc2c(cc1OC)CN(CCc1ccc(NC(=O)c3cc(OC)c(OC)cc3NC(=O)c3cnc4ccccc4c3)cc1)CC2 |  |  | 49.4 | Ratio IC50 (Homo sapiens [11]): 10.3; Ratio IC50 (Homo sapiens [5]): 32.1; Ratio IC50 (Homo sapiens [14]): 17; Ratio IC50 (Homo sapiens [19]): 6.2; Ratio IC50 (Homo sapiens [20]): 3.6
CCCCc1ccc(NC(=O)c2ccccc2NCc2cn(CCN3CCc4cc(OC)c(OC)cc4C3)nn2)cc1 | 75.7 µM | > 100 µM | 15.5 | 
COc1cc2c(cc1OC)CN(CCn1cc(CNc3ccccc3C(=O)Nc3ccc(Cl)cc3)nn1)CC2 | 43.4 µM | > 100 µM | 2.6 | 
